Values belong to the compound of their own block, whether it stands above or below them. The source made the active and inactive calls. No cut-off for these calls is given here.
Legend:
[1] = Inhibition of Saccharomyces cerevisiae alpha-glucosidase assessed as decrease in release of p-nitrophenol using pNPG as substrate preincubated for 2 hrs followed by substrate addition by spectrophotometric method
Homo sapiens [2] = species: Homo sapiens; assay: Competitive inhibition of alpha-glucosidase (unknown origin) assessed as increase in Km with constant Vmax by Lineweaver-Burk plot analysis
[3] = Inhibition of alpha-glucosidase (unknown origin) using p-nitrophenyl-alpha-D-glucopyranoside as substrate
Homo sapiens [4] = species: Homo sapiens; assay: Potency index, ratio of Acarbose IC50 to test compound IC50 for alpha-glucosidase (unknown origin)
[5] = Competitive inhibition of alpha-glucosidase (unknown origin) by Dixon plot analysis; set-up: species or system Homo sapiens
[6] = Inhibition of alpha-glucosidase (unknown origin); set-up: species or system Homo sapiens

IC50 [1]: 365 µM
Structure (SMILES): O=c1cc(-c2ccc(O)cc2)oc2cc(O)cc(O)c12 [APIGENIN]

inhibition (Homo sapiens [2]): Active
IC50 ([3]; read-out: IC50): 1.8 µM
Ratio IC50 (Homo sapiens [4]): 457
Ki [5]: 0.709 µM
Structure (SMILES): COC1(c2ccc(O)c(O)c2)Oc2cc(O)cc(O)c2C1=O (centres undefined)

IC50 ([3]; read-out: IC50): 731 µM
Structure (SMILES): COc1cc(O)c2c(=O)c(O)c(-c3ccc(O)cc3)oc2c1 [RHAMNOCITRIN]

IC50 [3]: Not Active
Structure (SMILES): COc1cc(OC)c2c(c1)OC(OC)(c1ccc(OC)c(OC)c1)C2=O (centres undefined)

IC50 [6]: 647 µM
Structure (SMILES): COc1ccc(-c2oc3cc(O)cc(O)c3c(=O)c2O)cc1 [KAEMPFERIDE]

IC50 ([3]; read-out: IC50): 420 µM
Structure (SMILES): O=c1c(O)c(-c2ccc(O)cc2)oc2cc(O)cc(O)c12 [KAEMPFEROL]
